The target of data set [1] is SIK3 (Homo sapiens, UniProt Q9Y2K2). The data set can be described thus: radiometric protein kinase assay (33PanQinase Activity Assay), SIK3. It is filed as biochemical. On the procedure: (§1) The IC50s of the compounds against the SIK family of protein-serine/threonine kinases (SIK2 and SIK3) were determined as followed. Briefly, a radiometric protein kinase assay (33PanQinase® Activity Assay) was used for measuring the kinase activity of the two protein kinases. The kinase assays were performed in 96-well FlashPlates™ from PerkinElmer (Boston, Mass., USA) in a 50 uL reaction volume. The reaction cocktail was pipetted in four steps in the following order: • […] (standard buffer/[gamma-33P]-ATP) • 10 uL of ATP solution (in water) • 5 uL of test compound (in 10% DMSO) • 20 uL enzyme/substrate mix
(§2) The following amounts of enzyme and applicable substrate were used per well:
(§3) The reaction cocktails were incubated at 30 °C for 60 minutes. The reaction was stopped with 50 uL of 2% (v/v) H3PO4, plates were aspirated and washed two times with 200 μL 0.9% (w/v) NaCl. Incorporation of 33Pi was determined with a microplate scintillation counter (Microbeta, Wallac). All assays were performed with a BeckmanCoulter/SAGIAN™ Core System.

The target in data set [2] is SIK2 (Homo sapiens, UniProt Q9H0K1). The data set can be described thus: radiometric protein kinase assay (33PanQinase Activity Assay), SIK2. The data set is classed as biochemical. Here is the method: as §1, §2, §3
Data set [3] deals with MC38 tumour cells. In words: TNF-sensitised cell viability assay (CellTiter-Glo), MC38. It is filed as cell-based, murine. The settings on record: 100 ng/ml rMuTNF, 72 h. Here is the method:
(§4) Cell viability of HCT116 tumour cells was measured using the CellTiter-Glo (CTG) luminescent cell viability assay (Promega, Madison, USA) according to the manufacturer's protocol. In short, 1×10^3 HCT116 cells were seeded in a 384-well plate for 24 h and subsequently treated with different concentrations of compounds and 10 ng/ml rHuTNF for 72 h at 37° C. and 5% CO2. After incubation, CTG reagent was added to the wells and cells were lysed for 10 min. Read-out was performed using the Tecan reader with 0.1 sec counting time. TNF-induced cell killing in human PANC1 and murine MC38 tumour cells was measured analogously to the assay in human HCT116 cells, except that for the PANC1 assay 100 ng/ml rHuTNF and for the MC38 assay 100 ng/ml rMuTNF were used.
A general note: Cellular ATP, detected with luciferase, serves as a proxy for viable cell number.

Data set [4] relates to HCT116 and PANC1. The data set can be described thus: toxicity against the cell lines in the absence of TNF. It is filed as cell-based. The settings on record: 0 ng/mL TNF, up to concentrations of 10 uM. Here is the method:
Typically, those compounds of Formula (I) tested were less toxic against the cell lines than the prior art compound PY1 when tested (eg, in the absence of TNF), especially against the human cell lines such as HCT116 (data not shown).
as §4

The test system of data set [5] is PANC1 tumour cells. In words: TNF-sensitised cell viability assay (CellTiter-Glo), PANC1. The following applies: for IC50: 100 ng/ml rHuTNF, 72 h. The data set is classed as cell-based, human. On the procedure:
as §4

Data set [6] concerns HCT116 tumour cells. In words: TNF-sensitised cell viability assay (CellTiter-Glo), HCT116. The data set is classed as cell-based, human. The settings on record: for IC50: 10 ng/ml rHuTNF, 72 h. On the procedure: as §4
Data set [7] has as its system human skin explants. The settings on record: topical treatment; Mujahid et al 2017; cited from earlier work.
Data set [8] relates to MPAL-associated AML cell lines (including MOLM-13 and MV4-11). The following applies: Tarumoto et al 2018; cited from earlier work.
Data set [9] is described as follows: Human plasma-protein binding (RED method). It is filed as in vitro ADME. On the procedure:
(§5) Human and mice protein plasma binding was determined using the Plasma Protein Binding by RED Method. Briefly, 200 uL of the respective plasma containing the test compound (10 uM) was spiked into the donor well (RED Chamber) of the insert. 350 uL of PBS was spiked into receiver well (white chamber). The plate was incubated at 37° C. in a thermomixer at 400 rpm for 5 hours. The samples were matrix equilibrated with opposite matrix (25 uL blank buffet/Plasma). Matrix matched samples were precipitated with 200 uL of Acetonitrile containing Internal standard. Samples were vortexed at 1000 rpm for 5 min and centrifuged at 4000 rpm for 10 min. The supernatant was diluted 2 folds with water and % bound and unbound protein and % recovery at 5 h was determined by LC-MS/MS.
(§6) LC-MS/MS was performed for all assays using a C18 column (50*4.6 mm, 5 um) for the CaCo2 assay, or a C18 column (50*4.6 mm, 4 um) for the other assays. The mobile phases used were 10 mM Ammonium Acetate with 0.1% Formic acid (aqueous) and 100% Acetonitrile (organic).

For data set [10], the system named is AML. The following applies: administered intraperitoneally; Tarumoto et al 2020; cited from earlier work.
Data set [11] can be described thus: Human liver microsomal stability. The data set is classed as in vitro ADME. The settings on record: pH 7.4; human liver microsomes, NADPH, 37°C. Here is the method: (§7) Briefly, human and liver microsomal stability was determined by pre-incubation of 2.5 uL compound and 75 uL of the respective liver microsomes in potassium phosphate buffer (pH 7.4) at 37° C. After adding of NADPH as cofactor and further incubation at 37° C. for 60 min, acetonitrile containing internal standard was added, and the sample was vortexed for 5 min at 1200 rpm and then centrifuged 10 min at 4000 rpm.
as §6
For orientation: Liver microsomes are vesicles of endoplasmic reticulum, rich in cytochrome P450 enzymes.

Data set [12] can be described thus: Kinetic solubility assay. The data set is classed as physicochemical. The settings on record: aqueous buffer, kinetic from dmso stock; PBS buffer pH 7.4, 1.0% DMSO, 24 h at RT. Here is the method:
The Kinetic solubility assay was conducted as follows. 4 uL compound of the 50 mM DMSO stock was added to deep well plate containing 396 uL PBS buffer (pH 7.4). The DMSO content in the sample was 1.0%, and the compound concentration 500 μM. The sample plate was vortexed at 800 rpm for 24 h at RT on a thermomixer. At the end of the incubation period, the sample plate was centrifuged at 4000 rpm for 10 mins. 3 uL of supernatant was transferred to well containing 297 uL of ISTD in Acetonitrile water:50:50, v/v and analysed in LC-MS/MS against a calibration curve (CC).

The nature of data set [13]: CaCo2 permeability and efflux assay. It is filed as in vitro ADME. The settings on record: human, Caco-2; CaCo2, mean efflux ratio. On the procedure: (§8) To determine apparent permeability of the compounds an assay using a Caco-2 cells monolayer (cultured for 21d) in a 24-well format (poly carbonate high pore density plate with 0.4 μm pore size and a 0.7 cm2 active membrane area; Millipore) was performed as followed. 800 uL of DMEM was added to the basal compartment of the 24 well-plate and 60000 CaCo2 cells/well were seeded in the apical wells and incubated in a CO2 incubator at 37° C. for proliferation of cells. Apical to Basal permeability was determined by adding 400 uL of test compound to the apical well and 800 uL of HBSS buffer with 2% BSA to the basal well. 25 uL of basal sample was collected after 120 min and processed as stated below. Basal to Apical permeability was determined by adding 800 uL of test compound to basal well and 400 uL of HBSS buffer with 2% BSA to apical well. 25 uL of apical sample was collected after 120 min and processed as stated below. The samples were processed by diluting the donor samples 1:1 with HBSS containing 2% BSA and the receiver samples 1:1 with HBSS buffer. Samples were then precipitated with 200 uL of acetonitrile containing internal standard, vortexed for 5 min at 1000 rpm, and centrifuged at 4000 rpm for 20 min. 150 uL of supernatant was diluted with 150 uL of water and submitted for LC-MS/MS analysis, and Bi-directional (A-B and B-A) apparent permeability (Papp) was calculated.
as §6
A general note: Caco-2 cells form a polarised layer with tight junctions and transporters.

For data set [14], the system named is Caco-2 cells monolayer. In words: CaCo2 permeability and efflux assay. The data set is classed as in vitro ADME. The settings on record: CaCo2, apical to basal, 120 min. Here is the method:
as §8, §6

The nature of data set [15]: Mouse liver microsomal stability. It is filed as in vitro ADME. The settings on record: pH 7.4; mouse liver microsomes, NADPH, 37°C. On the procedure:
as §7, §6

Data set [16] is described as follows: Mouse hepatocyte stability. It is filed as in vitro ADME. The following applies: mouse hepatocytes, 37°C. Here is the method:
(§9) Determination of human and mice hepatocyte stability was conducted as follows. 200 uL of the respective hepatocyte cell suspension (2×10e6/ml) was preincubated at 37° C. for 10 min. Then, 200 uL of a 2 uM working stock of the test compound was added to the hepatocyte cell suspension, and the mixture was further incubated at 37° C. and 500 rpm. The reaction was stopped at 30, 60 and 120 min by precipitating 50 uL of the incubation mixture with 200 uL of acetonitrile. Samples were vortexed for 5 min at 1200 rpm and centrifuged at 4000 rpm for 10 min. Intrinsic clearance and half-life were analysed using LC-MS/MS.
as §6

The nature of data set [17]: Murine plasma protein binding (RED method). The data set is classed as in vitro ADME. The following applies: mouse. On the procedure: as §5, §6
The nature of data set [18]: pharmacokinetic study, plasma level after single po or iv administration. It is filed as in vivo, male CD1 mice. The settings on record: mice. On the procedure:
Screening PK properties of compounds of Formula (I) are additionally determined, including plasma and free plasma concentration, as well as Cmax. For example, the free concentration of compound after a dose of eg 30 mg/kg po (per os) administered mice can be determined for certain time points after administrations.
To further investigate PK properties of kinase inhibitors of Formula (I), the compounds are tested for in vivo drug exposure and potency in a full pharmacokinetic study with oral administration (per os, po).
The experimental procedure and the determination of the pharmacokinetic parameters are investigated after single administration of each compound per gavage in male CD1 mice (Intonation Research Laboratories (Hyderabad, India)). The compounds are diluted in 5% DMSO+5% Solutol+90% water. Plasma level (eg sampling 0.25 h; 0.5 h; 1 h; 1.5 h; 2 h; 4 h; 6 h; 12 h; 24 h after drug administration) of the compounds are analysed by LC-MS/MS and pharmacokinetic parameters are determined using non-compartmental analysis and nominal dose levels of eg 30 mg/kg po and 1 mg/kg iv. Three animals are analysed per time point and each mouse is used for three plasma samplings in total.

A short description of data set [19]: Human hepatocyte stability. The settings on record: human hepatocytes, 37°C. It is filed as in vitro ADME. Here is the method: as §9, §6
Setting [20] is: ATP 1.0 μM, substrate RBER-CHKtide.

In brackets after ≈: the same amount, converted by molar mass. Like-named read-outs stand apart in the source and are kept apart here.

SIK3, sequence (Q9Y2K2 whole entry): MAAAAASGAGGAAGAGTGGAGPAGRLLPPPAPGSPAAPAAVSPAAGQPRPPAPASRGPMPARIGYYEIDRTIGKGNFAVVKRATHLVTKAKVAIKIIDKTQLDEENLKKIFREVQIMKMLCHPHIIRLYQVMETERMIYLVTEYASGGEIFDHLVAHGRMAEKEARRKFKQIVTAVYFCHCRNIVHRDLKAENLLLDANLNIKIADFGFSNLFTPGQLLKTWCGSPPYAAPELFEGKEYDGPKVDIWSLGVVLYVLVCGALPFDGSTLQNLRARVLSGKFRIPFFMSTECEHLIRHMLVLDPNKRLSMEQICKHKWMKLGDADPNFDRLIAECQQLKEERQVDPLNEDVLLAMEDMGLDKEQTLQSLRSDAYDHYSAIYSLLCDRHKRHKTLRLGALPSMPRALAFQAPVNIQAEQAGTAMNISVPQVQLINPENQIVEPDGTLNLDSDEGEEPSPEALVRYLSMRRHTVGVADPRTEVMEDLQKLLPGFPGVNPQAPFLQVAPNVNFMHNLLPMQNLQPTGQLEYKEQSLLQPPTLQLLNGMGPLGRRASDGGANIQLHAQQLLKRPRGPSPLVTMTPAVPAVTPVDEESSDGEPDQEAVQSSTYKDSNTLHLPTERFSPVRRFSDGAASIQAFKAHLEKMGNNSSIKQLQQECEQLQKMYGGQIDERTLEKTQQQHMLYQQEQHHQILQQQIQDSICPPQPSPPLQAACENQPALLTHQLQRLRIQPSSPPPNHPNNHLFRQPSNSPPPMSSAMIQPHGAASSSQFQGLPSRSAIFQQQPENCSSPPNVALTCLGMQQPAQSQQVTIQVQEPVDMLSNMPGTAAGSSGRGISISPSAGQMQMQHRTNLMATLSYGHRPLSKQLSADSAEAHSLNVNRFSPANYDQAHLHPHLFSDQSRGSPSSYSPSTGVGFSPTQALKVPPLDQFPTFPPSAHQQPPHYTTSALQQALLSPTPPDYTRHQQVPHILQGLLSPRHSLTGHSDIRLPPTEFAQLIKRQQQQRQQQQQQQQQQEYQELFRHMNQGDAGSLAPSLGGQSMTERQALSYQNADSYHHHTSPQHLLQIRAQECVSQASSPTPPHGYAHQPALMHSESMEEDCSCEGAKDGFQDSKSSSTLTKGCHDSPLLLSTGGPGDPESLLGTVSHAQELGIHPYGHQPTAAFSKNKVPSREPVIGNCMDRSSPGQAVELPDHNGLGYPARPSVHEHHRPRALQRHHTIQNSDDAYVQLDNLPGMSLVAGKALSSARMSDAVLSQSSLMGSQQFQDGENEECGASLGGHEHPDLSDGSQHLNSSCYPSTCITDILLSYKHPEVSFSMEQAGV
SIK2, sequence (Q9H0K1 whole entry): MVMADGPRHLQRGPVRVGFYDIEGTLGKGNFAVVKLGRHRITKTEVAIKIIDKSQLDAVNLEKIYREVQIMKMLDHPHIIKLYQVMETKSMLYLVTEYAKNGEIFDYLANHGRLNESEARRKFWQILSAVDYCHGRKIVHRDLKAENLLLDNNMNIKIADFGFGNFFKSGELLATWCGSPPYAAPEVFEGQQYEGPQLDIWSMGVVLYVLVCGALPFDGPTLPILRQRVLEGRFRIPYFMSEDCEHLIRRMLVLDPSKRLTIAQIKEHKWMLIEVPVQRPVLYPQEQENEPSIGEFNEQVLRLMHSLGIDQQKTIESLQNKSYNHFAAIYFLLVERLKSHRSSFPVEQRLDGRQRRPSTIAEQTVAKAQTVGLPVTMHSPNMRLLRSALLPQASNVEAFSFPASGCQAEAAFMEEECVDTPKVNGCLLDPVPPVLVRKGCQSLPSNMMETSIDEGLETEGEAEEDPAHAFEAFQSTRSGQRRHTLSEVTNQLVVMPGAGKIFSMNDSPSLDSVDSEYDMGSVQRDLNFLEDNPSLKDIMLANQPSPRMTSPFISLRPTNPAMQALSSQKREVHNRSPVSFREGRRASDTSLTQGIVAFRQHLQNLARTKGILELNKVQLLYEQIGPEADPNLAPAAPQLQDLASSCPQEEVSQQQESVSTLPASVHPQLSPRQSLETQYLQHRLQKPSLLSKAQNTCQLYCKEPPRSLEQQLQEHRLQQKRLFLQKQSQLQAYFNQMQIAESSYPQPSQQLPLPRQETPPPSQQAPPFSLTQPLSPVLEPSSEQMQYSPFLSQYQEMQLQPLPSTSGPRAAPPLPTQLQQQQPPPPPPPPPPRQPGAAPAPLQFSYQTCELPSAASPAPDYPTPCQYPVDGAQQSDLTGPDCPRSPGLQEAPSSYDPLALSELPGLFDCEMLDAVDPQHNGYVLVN

Regarding `COc1ccc(N2C(=O)N(c3c(CF)csc3Cl)Cc3cnc(Nc4ccc(N5CCN(C)CC5)cc4)nc32)nc1` [AA6, 3-(2-chloro-4-(fluoromethyl)thiophen-3-yl)-1-(5-methoxypyridin-2-yl)-7-((4-(4-methylpiperazin-1-yl)phenyl)amino)-3,4-dihydropyrimido[4,5-d]pyrimidin-2(l H)-one], the IC50 was less than 50 nM in [1] (setting [20]); less than 50 nM in data set [2] (setting [20]); 500 to 1000 nM in data set [3] (read-out: MC38 IC50 (at 100 ng/ml rMuTNF)); 100 to 500 nM in data set [5] (read-out: PANC IC50 (at 100 ng/ml rHuTNF)); less than 100 nM in [6] (read-out: HCT116 IC50 (at 10 ng/ml rHuTNF)). Besides, in data set [1] (in words), the “inhibiting SIK3 compared to PY1” value is “superior in inhibiting SIK2 and SIK3 compared to PY1”. Also, the “inhibiting SIK2 compared to PY1” value in [2] (in words) is “superior in inhibiting SIK2 and SIK3 compared to PY1”. Also, in data set [4], the “toxicity against the cell lines in the absence of TNF” value is recorded as “essentially non-toxic”. Besides, the “sensitisation of PANC tumour cells to the cytotoxic effects of TNF compared to PY1” value in data set [5] (in words) was “stronger effect than PY1”. Also, in data set [6] (in words), the “sensitisation of HCT116 tumour cells to the cytotoxic effect of TNF compared to PY1” value is on record as “much stronger effect compared to the prior art compound PY1”.

For `COc1ccc(N(C(=O)Nc2c(C)cccc2C)c2cc(Nc3ccc(N4CCN(C)CC4)cc3)ncn2)c(OC)c1` [HG-9-91-01], the “eumelanisation in human skin” value in [7] was “able to induce eumelanisation”. Also, in data set [8], the “viability of MPAL-associated AML cell lines” value is “strongly decreases viability”.

A word on the half-life: it is how long it takes for the measured level to halve. High values mean slow decline, low ones rapid decline. For orientation: kinetic solubility means solubility judged after dilution from a stock solution rather than from solid. For orientation: efflux ratio means a quotient of directional permeabilities that is used to spot active efflux. Consider `COc1ccc(N2C(=O)N(c3c(C)cccc3Cl)Cc3cnc(Nc4ccc(C5CCN(C)CC5)cc4OC)nc32)nc1` [PY1, 3-(2-chloro-6-methylphenyl)-7-((2-methoxy-4-(1-methylpiperidin-4-yl)phenyl)amino)-1-(5-methoxypyridin-2-yl)-3,4-dihydropyrimido[4,5-d]pyrimidin-2(1H)-one, reference compound], for which the recovery at 5 h, 10 uM in [9] worked out at 53%; in data set [17], 42%. Further, the AML progression in-vivo entry in data set [10] is “suppressed AML progression in-vivo”. Besides, the half-life is 2.57 h in data set [11] and 1.45 h in data set [15]. In addition, the kinetic solubility at 24 h in data set [12] is 3.6 µM (≈ 2.16 µg/mL). The efflux ratio at 120 min in data set [13] amounted to 3.2. In addition, the “A > B(10 EE-06 cm/s)” value in [14] was 9.5 10 EE-06 cm/s. Also, the IC50 in [3] (Mus musculus, MC-38, read-out: MC38 IC50 (at 100 ng/ml rMuTNF)) lay within 500 to 1000 nM; in data set [5] (Homo sapiens, PANC-1, read-out: PANC IC50 (at 100 ng/ml rHuTNF)) it was 500 to 1000 nM; in data set [6] (Homo sapiens, HCT-116, read-out: HCT116 IC50 (at 10 ng/ml rHuTNF)) it was 500 to 1000 nM. The half-life at 1 uM in [16] amounted to 1.25 h; in [19] it was 10.7 h. The “compound detectable in plasma after 24 h” value in data set [18] (1 mg/kg iv) and in data set [18] (30 mg/kg po) was “No PY1 (the prior art compound YKL-05-099) was detectable after 24 h” in each case.

Source of the values: patent US20230192701A1, “BICYCLIC KINASE INHIBITORS AND USES THEREOF” (iOmx Therapeutics AG, priority 2020, published 2023).
